Assays:
human MR = target: T1, human MR (Homo sapiens, UniProt P08235); experiment: Mineralocorticoid Receptor Binding Assay (Method 1), [3H]-aldosterone competition; conditions: 0.5 nM [3H]-aldosterone, human MR expressed in Sf9 cells
T1 construct: The full length human MR gene is cloned from a human kidney or human brain cDNA library; inferred from own knowledge of the pAcHLT vector (N); made in house; host or cells: Sf9 insect cells (baculovirus)
T1 sequence (P08235 1-984): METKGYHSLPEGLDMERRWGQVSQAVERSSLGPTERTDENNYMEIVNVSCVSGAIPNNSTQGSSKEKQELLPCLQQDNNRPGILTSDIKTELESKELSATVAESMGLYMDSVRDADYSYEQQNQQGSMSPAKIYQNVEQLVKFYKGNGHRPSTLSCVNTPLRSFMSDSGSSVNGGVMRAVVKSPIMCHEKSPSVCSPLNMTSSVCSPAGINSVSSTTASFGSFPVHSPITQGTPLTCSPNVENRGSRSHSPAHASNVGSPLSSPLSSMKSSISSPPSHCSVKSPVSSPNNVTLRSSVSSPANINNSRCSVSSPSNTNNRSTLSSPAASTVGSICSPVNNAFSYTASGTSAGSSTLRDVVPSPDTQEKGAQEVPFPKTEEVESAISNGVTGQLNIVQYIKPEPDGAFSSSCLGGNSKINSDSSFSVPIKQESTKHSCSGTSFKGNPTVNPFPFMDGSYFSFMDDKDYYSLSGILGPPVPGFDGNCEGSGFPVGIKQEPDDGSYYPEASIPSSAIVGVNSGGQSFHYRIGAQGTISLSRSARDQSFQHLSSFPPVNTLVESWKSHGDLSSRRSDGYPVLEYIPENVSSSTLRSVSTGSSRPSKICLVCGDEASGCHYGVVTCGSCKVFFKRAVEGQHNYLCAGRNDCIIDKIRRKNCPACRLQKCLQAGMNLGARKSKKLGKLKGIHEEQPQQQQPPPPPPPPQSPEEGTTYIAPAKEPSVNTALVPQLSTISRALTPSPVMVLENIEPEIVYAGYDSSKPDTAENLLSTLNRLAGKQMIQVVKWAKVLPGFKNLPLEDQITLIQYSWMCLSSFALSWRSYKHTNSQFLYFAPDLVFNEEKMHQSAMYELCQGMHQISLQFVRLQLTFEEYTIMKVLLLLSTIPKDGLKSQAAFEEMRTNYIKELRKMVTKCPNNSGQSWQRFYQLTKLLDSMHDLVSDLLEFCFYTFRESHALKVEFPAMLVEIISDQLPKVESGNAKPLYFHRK
Method: Mineralocorticoid Receptor Binding Assay (Method 1):
The full length human MR gene is cloned from a human kidney or human brain cDNA library. […] The PCR reaction is performed in a final volume of 50 μl containing about 1 μl of a 50× stock solution of polymerase; about 1 μl of a 50× stock solution of dNTP; about 5 μl of an appropriate PCR buffer; about 1 μl of each primer; about 5 μl of a H. kidney or H. brain cDNA library; and about 36 μl of water. The reaction is allowed to denature for about 30 seconds at 95 degrees Celsius, anneal for about 30 seconds at 55 degrees Celsius, and extend for about 5 minutes at 72 degrees Celsius, the sequence being repeated for a total of about 35 cycles. […] To extract the cDNA product from the agarose gel, the QIAEX II Gel Extraction protocol (QIAGEN, Inc.) is employed according to the manufacturer's instructions. Following extraction, the MR cDNA is cloned into an appropriate cloning vector (Zero Blunt TOPO PCR Cloning Kit (Invitrogen, Inc.) and a pAcHLT-baculovirus transfer vector (B.D./Pharminogen), then expressed in SF9 insect cells, essentially according to manufacturer's instructions. Sf9 cells are grown at a scale where gram quantity cell pellets are obtained for subsequent use in the MR binding assay. Harvested cell pellets are lysed by repeated freeze-thaw cycles (about 4) in a suitable lysis buffer then centrifuged at about 1×10^3 G (with the supernatant being saved for future assays).
MR binding assays are performed in a final total volume of about 250 μl containing about 20-25 μg of protein and 0.5 nM of [^3H]-aldosterone plus varying concentrations of test compound or vehicle. The assay binding buffer consists of 30 mM sodium molybdate, 30 mM of TRIS-HCl, 5 mM sodium phosphate, 5 mM sodium pyrophosphate, and about 10% glycerol, pH=7.5.
Incubations are carried out at 4 degrees Celsius with shaking for about 16 hours. 200 μl aliquots of each incubation are filtered onto Millipore HA 0.45 micron 96-well filter plates, pre-moistened with cold 30 mM TRIS-HCl. The filter plates are suctioned dry with vacuum and immediately washed 3× with cold 30 mM TRIS-HCl. The plates are then punched out and the amount of receptor-ligand complex is determined by liquid scintillation counting using 4 ml of Ready Protein Plus™ liquid scintillation cocktail.

glucocorticoid receptor = target: T2, glucocorticoid receptor (Homo sapiens, UniProt P04150); experiment: Glucocorticoid Receptor Binding Assay (Method 1), [3H]-dexamethasone competition, A549 cell extract; conditions: 1.86 nM [3H]-dexamethasone, read-out: GR Ki (nM) Method 1
T2 construct: containing 50-200 ug of A549 cell extract and 1.86 nM; host or cells: A549 human lung epithelial cells
T2 sequence (P04150 1-777): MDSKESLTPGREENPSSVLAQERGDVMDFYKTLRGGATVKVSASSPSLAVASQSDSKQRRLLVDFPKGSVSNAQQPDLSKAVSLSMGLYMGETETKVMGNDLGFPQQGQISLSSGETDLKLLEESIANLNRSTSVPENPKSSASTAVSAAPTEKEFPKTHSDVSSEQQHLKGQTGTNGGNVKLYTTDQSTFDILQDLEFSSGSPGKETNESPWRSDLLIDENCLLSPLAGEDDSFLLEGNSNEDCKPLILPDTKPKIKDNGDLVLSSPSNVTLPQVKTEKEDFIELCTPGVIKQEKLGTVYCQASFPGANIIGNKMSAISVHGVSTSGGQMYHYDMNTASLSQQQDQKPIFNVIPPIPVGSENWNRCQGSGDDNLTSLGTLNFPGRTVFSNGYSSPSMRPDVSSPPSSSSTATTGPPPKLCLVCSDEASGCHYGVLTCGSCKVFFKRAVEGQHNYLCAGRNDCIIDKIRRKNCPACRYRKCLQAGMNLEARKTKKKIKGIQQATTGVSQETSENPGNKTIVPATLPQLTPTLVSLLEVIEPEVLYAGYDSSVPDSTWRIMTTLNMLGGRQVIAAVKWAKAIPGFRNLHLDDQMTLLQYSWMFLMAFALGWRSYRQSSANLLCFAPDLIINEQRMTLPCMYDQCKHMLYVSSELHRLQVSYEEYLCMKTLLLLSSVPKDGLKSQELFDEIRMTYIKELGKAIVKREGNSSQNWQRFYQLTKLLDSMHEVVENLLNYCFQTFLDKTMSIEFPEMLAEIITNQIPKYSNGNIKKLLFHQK
Method: Glucocorticoid Receptor Binding Assay (Method 1):
A549 human lung epithelial cells (ATCC) are grown at a scale where gram quantity cell pellets are obtained. Harvested cell pellets are washed twice in cold phosphate buffered saline, centrifuged, and resuspended in cold assay binding buffer. The assay binding buffer consists of 10% glycerol, 50 mM Tris-HCl (pH7.2), 75 mM sodium chloride, 1.5 mM magnesium chloride, 1.5 mM EDTA, and 10 mM sodium molybdate. Cell suspensions were lysed via sonication, centrifuged, and the “extract” supernatant is snap frozen and stored at −80 C until needed.
Incubations are carried out at 4 degrees Celsius for 16 hours. After incubation, 70 ul of 3× dextran-coated charcoal solution is added to each reaction, mixed, and incubated for 8 minutes at RT. 3×-dextran-coated charcoal solution consists of 250 ml assay binding buffer, 3.75 g Norit A charcoal (Sigma), and 1.25 g dextran T-70 (Amersham). Charcoal/unbound radioligand complexes are removed by centrifugation of the plate and 140 ul of supernatant from each well is transferred to another 96 well Optiplate (Packard Instruments). 200 ul of Microscint-20 scinillant (Packard Instruments) is added to each well and amount of receptor bound radioligand is determined using Packard Instruments TopCount instrument.

Compound	Ki (human MR) [nM]	Ki (glucocorticoid receptor) [nM]
CC(c1ccc(F)cc1)(c1c[nH]c2c(NS(C)(=O)=O)cccc12)C1CC1 (centres unmarked) [Example 5, N-{3-[1-Cyclopropyl-1-(4-fluoro-phenyl)-ethyl]-1H-indol-7-yl}-methanesulfonamide]	< 500	< 500
CCC(CC)(c1cc2ccccc2s1)c1c[nH]c2c(NS(C)(=O)=O)cccc12 [Example 6, N-[3-(1-Benzo[b]thiophen-2-yl-1-ethyl-propyl)-1H-indol-7-yl]-methanesulfonamide]	< 500	< 500
CCCC(C)(c1ccc(F)cc1)c1c[nH]c2c(NS(C)(=O)=O)cccc12 (centres unmarked) [Example 7, N-{3-[1-(4-Fluoro-phenyl)-1-methyl-butyl]-1H-indol-7-yl}-methanesulfonamide]	< 500	< 500
CCC(CC)(c1ccc(SC)cc1)c1c[nH]c2c(NS(C)(=O)=O)cccc12 [Example 8, N-{3-[1-Ethyl-1-(4-methylsulfanyl-phenyl)-propyl]-1H-indol-7-yl}-methanesulfonamide]	< 500	< 500
CC(C)(c1cc2ccccc2o1)c1c[nH]c2c(NS(C)(=O)=O)cccc12 [Example 9, N-[3-(1-Benzofuran-2-yl-1-methyl-ethyl)-1H-indol-7-yl]-methanesulfonamide]	< 500	< 500
CCCC(C)(c1ccsc1)c1c[nH]c2c(NS(C)(=O)=O)cccc12 (centres unmarked) [Example 10, N-[3-(1-Methyl-1-thiophen-3-yl-butyl)-1H-indol-7-yl]-methanesulfonamide]	< 500	< 500
CCC(CC)(c1cc2cc(Cl)ccc2o1)c1c[nH]c2c(NS(C)(=O)=O)cccc12 [Example 11, N-{3-[1-(5-Chloro-benzofuran-2-yl)-1-ethyl-propyl]-1H-indol-7-yl}-methanesulfonamide]	< 500	< 10000
Cc1ccc(C(C)(C)c2c[nH]c3c(NS(C)(=O)=O)cccc23)cc1 [Example 12, N-[3-(1-Methyl-1-p-tolyl-ethyl)-1H-indol-7-yl]-methanesulfonamide]	< 500	< 500
CC(C)(c1cc2ccccc2s1)c1c[nH]c2c(NS(C)(=O)=O)cccc12 [Example 13, N-[3-(1-Benzo[b]thiophen-2-yl-1-methyl-ethyl)-1H-indol-7-yl]-methanesulfonamide]	< 500	< 1000
CCCC(C)(c1ccc(OC)cc1)c1c[nH]c2c(C)cccc12 (centres unmarked) [Example 20, 3-[1-(4-Methoxy-phenyl)-1-methyl-butyl]-7-methyl-1H-indole]	< 500	< 500
CCCCC(C)(c1ccc(OC)cc1)c1c[nH]c2c(C)cccc12 (centres unmarked) [Example 23, 3-[1-(4-Methoxy-phenyl)-1-methyl-pentyl]-7-methyl-1H-indole]	< 500	< 500

Continued, values first:

Ki (human MR) [nM]	Ki (glucocorticoid receptor) [nM]	Compound
< 500	< 500	CC(C)(c1csc2ccccc12)c1c[nH]c2c(NS(C)(=O)=O)cccc12 [Example 14, N-[3-(1-Benzo[b]thiophen-3-yl-1-methyl-ethyl)-1H-indol-7-yl]-methanesulfonamide]
< 500	< 500	CCC(CC)(c1cccs1)c1c[nH]c2c(NS(C)(=O)=O)cccc12 [Example 15, N-[3-(1-Ethyl-1-thiophen-2-yl-propyl)-1H-indol-7-yl]-methanesulfonamide]
< 500	< 1000	CS(=O)(=O)Nc1cccc2c(C3(c4ccccc4)CCCCC3)c[nH]c12 [Example 16, N-[3-(1-Phenylcyclohexyl)-1H-indol-7-yl]-methanesulfonamide]
< 500	< 500	CCC(CC)(c1ccc(OCc2ccccc2)cc1)c1c[nH]c2c(NS(C)(=O)=O)cccc12 [Example 17, N-{3-[1-(4-Benzyloxy-phenyl)-1-ethyl-propyl]-1H-indol-7-yl}-methanesulfonamide]
< 500	< 500	CCC(CC)(c1ccc(O)cc1)c1c[nH]c2c(NS(C)(=O)=O)cccc12 [Example 18, N-{3-[1-Ethyl-1-(4-hydroxy-phenyl)-propyl]-1H-indol-7-yl}-methanesulfonamide]
< 500	< 500	CCCC(C)(c1ccc(OC)cc1)c1c[nH]c2c(CC)cccc12 (centres unmarked) [Example 19, 7-Ethyl-3-[1-(4-methoxy-phenyl)-1-methyl-butyl]-1H-indole]
< 500	< 500	CS(=O)(=O)Nc1cccc2c(C3(c4ccccc4)CCCC3)c[nH]c12 [Example 21, N-[3-(1-Phenyl-cyclopentyl)-1H-indole-7-yl]-methanesulfonamide]
< 500	< 500	CC(C)(c1ccc2c(c1)CCO2)c1c[nH]c2c(NS(C)(=O)=O)cccc12 [Example 22, N-{3-[1-(2,3-Dihydro-benzofuran-5-yl)-1-methyl-ethyl]-1H-indol-7-yl}-methanesulfonamide]
